Source: ChEMBL document CHEMBL1139196, “Synthesis of fluorescent-labeled aeruginosin derivatives for high-throughput fluorescence correlation spectroscopy assays” (Bioorg Med Chem Lett, 2007)

Biological target: Trypsin (Homo sapiens, UniProt P07477+P07478+P35030)
Assay: Inhibition of trypsin by FCS method
Assay type: protein assay

IC50	Compound
150 nM	N=C(N)NCCCCNC(=O)[C@@H]1C[C@@H]2CC[C@@H](O)C[C@@H]2N1C(=O)[C@@H](Cc1ccc(O)cc1)NC(=O)[C@H](O)Cc1ccc(O)cc1
1000 nM	N=C(N)NCCC[C@H](NC(=O)[C@@H]1C[C@@H]2CC[C@@H](O)C[C@@H]2N1C(=O)[C@@H](Cc1ccc(O)cc1)NC(=O)[C@H](O)Cc1ccc(O)cc1)C(=O)O
8800 nM	N=C(N)NCCC[C@@H](CO)NC(=O)[C@@H]1C[C@@H]2CC[C@@H](O)C[C@@H]2N1C(=O)[C@@H](Cc1ccc(O)cc1)NC(=O)[C@H](O)Cc1ccc(O)cc1

Second part, the compound before the results:

Compound	IC50
N=C(N)NCCC[C@H](NC(=O)[C@@H]1C[C@@H]2CC[C@@H](O)C[C@@H]2N1C(=O)[C@H](Cc1ccccc1)NC(=O)[C@H](O)Cc1ccc(O)cc1)C(=O)O	12000 nM
CC(C)C[C@@H](NC(=O)[C@H](O)Cc1ccc(O)cc1)C(=O)N1[C@H](C(=O)N[C@@H](CCCNC(=N)N)C(=O)O)C[C@@H]2CC[C@@H](O)C[C@@H]21	650 nM
